Assays:
[1] = Toxicity Index (TI) computed from graded treatment-attributable adverse events (NCI CTC) of recipient subjects, per treatment cycle; assay type: in vivo, human; set-up: key to Toxicity Index TI9 Mean / Toxicity Index TI12 Mean / Toxicity Index TI13 Mean / Toxicity Index TI16 Mean / Toxicity Index TI17 Mean / Toxicity Index TI19 Mean / Toxicity Index TI1 Mean / Toxicity Index TI2 Mean / Toxicity Index TI4 Mean: weighted sum of ordered recoded CTC grades; ≥3 = DLT; conditions: mean over recipient subjects; for Toxicity Index TI1 Mean: cycle 1, score between 0 and 5; for Toxicity Index TI2 Mean: cycle 2; for Toxicity Index TI3 Mean: cycle 3; for Toxicity Index TI4 Mean: cycle 4; for Toxicity Index TI5 Mean: cycle 5; for Toxicity Index TI6 Mean: cycle 6; for Toxicity Index TI7 Mean: cycle 7; for Toxicity Index TI8 Mean: cycle 8; for Toxicity Index TI9 Mean: cycle 9; for Toxicity Index TI10 Mean: cycle 10; for Toxicity Index TI11 Mean: cycle 11; for Toxicity Index TI12 Mean: cycle 12; for Toxicity Index TI13 Mean: cycle 13; for Toxicity Index TI14 Mean: cycle 14; for Toxicity Index TI15 Mean: cycle 15; for Toxicity Index TI16 Mean: cycle 16; for Toxicity Index TI17 Mean: cycle 17; for Toxicity Index TI18 Mean: cycle 18; for Toxicity Index TI19 Mean: cycle 19; for Toxicity Index TI20 Mean: cycle 20; for Toxicity Index TI21 Mean: cycle 21
Source text: Recipient subject-specific characteristics, medical and treatment histories, doses of experimental agents, and graded toxicities were extracted from case report forms. Toxicity data were represented for each subject as a set of treatment-attributable adverse events, each graded (0, 1, 2, 3, or 4) according to NCI Common Toxicity Criteria (CTC). The term “toxicity profile” as used herein refers to the collection of graded toxicities observed for an individual recipient subject.
To include all trials in the same analysis, a common definition of dose limiting toxicity (DLT) was adopted. Specifically, DLT was defined as occurring whenever any one of the following was observed: grade 4 hematological toxicity (grade 4 neutropenia or thrombocytopenia of any duration); a grade 3 or 4 non-hematological toxicity (excluding nausea, vomiting, and alopecia); febrile neutropenia of any grade.
To identify risk factors and other pre-trial characteristics of interest, several ways of summarizing the toxicity profile of a given recipient subject into a single measure of overall severity were examined as described, for example in Rogatko et al., (2004) Clin. Cancer Res. 10:4645-4651, incorporated herein by reference in its entirety. A summary measure that takes into account all observed toxicity grades rather than just the most severe one was used. The summary measure, the Toxicity Index (TI), is computed according to the following algorithm: • (a) recode each hematologic toxicity as the maximum of 0 and the observed grade minus one (so that a grade 3 toxicity is dose limiting irrespective of whether or not it is hematologic). • (b) Let the toxicity grades in a subject's recoded toxicity profile be represented in descending order by the sequence X1≧X2≧ . . . ≧Xn • (c) Calculate the subject's TI score as the weighted sum of the ordered toxicity grades:
Any score greater than or equal to 3 corresponds to a DLT according to the definition given above, and the maximum toxicity grade is the integer part of the final score. […] All toxicity grades are taken into account, though lower grades will contribute less to the final score.
The score is a number between 0 and 5.
Thirty (30) recipient subjects already receiving treatment with paclitaxel were screened for the presence of SNPs in the CYP2C8 and TUBB loci. Clinical data from each of the recipient subjects was used to first calculate a Toxicity Index (TI) value for each individual according to the method presented in Example 1, above. The genotype for each recipient subject with regard to the SNPs of CYP2C8 and TUBB was determined using SNPWARE™ and single base extension according to the methods of Example 4, above.
(§1) A preliminary data analysis focused on the relationship between the Toxicity Index and the recipient subjects' demographic/genetic information. […] Univariate linear regression analysis was conducted first to find significant covariates in predicting the Toxicity Index in one of five cycles, then multivariable analysis was used to determine the best model in fitting the data. A mixed model for repeated measurement was implemented in modeling Toxicity Index in the first five cycles, and also in all cycles. Autoregressive covariance structure was used in the mixed model. SAS and Minitab were used in the analysis.

CYP3A5 = assay: Regression of Toxicity Index on CYP3A5 SNP genotype of recipient subjects; assay type: in vivo, human; conditions: for Para. Est., TI5 vs CYP3A5_3A (multivariable): multivariable analysis best model; for Para. Est., TI5 vs CYP3A5_3A (multivariable) / Para. Est., TI5 vs CYP3A5_3A1 / Para. Est., TI5 vs CYP3A5_3A: cycle 5
Source text: The GENOMELAB SNPSTREAM™ (Beckman) was utilized to accommodate up to 92,000 genotypes per day. This automated, multiplexed system can process up to 48 SNPs in each well of an arrayed 384-well plate. The SNPSTREAM™ operates at a consistent cost per genotype or per sample, regardless of run throughput, allowing users to cost-effectively zero in on targets with low-throughput studies as well as conduct high-throughput analyses.
The SNPSTREAM™ Genotyping System features a protocol with three steps. The technology is based on single-based primer extension technology. The system's high sensitivity delivers results using as little as 2 ng of genomic DNA. SNPWARE™ reagent kits were used. The kits included ready-to-use reagents, all performed in the original PCR plate according to the manufacturer's instructions, and incorporated herein by reference in its entirety.
Multiplexed reactions were spatially resolved on a SNPWARE™ Tag Array plate. Each of the 384 wells in a plate contained 16 or 52 unique oligonucleotides of a known sequence, or tag. Each tag on the plate was complementary to one of the tags of the 12 or 48 extension primers, plus four controls to ensure accuracy. After transfer to the Tag Array plate, each SNP was hybridized to its complementary tag. SNPs were then identified by their position in the well.
The process involved a multiplex PCR followed by an annealing reaction of the oligonucleotide to the specific PCR product. Next the oligonucleotide was extended by a single base which was fluorescently labeled with a terminating NTP and finally detected by two-colored fluorescence specific for the allele.
For each SNP, the -PCRU and -PCRL primers were first used to amplify a relevant DNA fragment surrounding the target SNP site. The components per reaction were: H2O, 3.0 μl; 10× PCR Buffer II, 0.5 μl; MgCl2 (25 mM), 1.0 μl; dNTPs (2.5 mM each), 0.18 μl; PCR Primer Pool (2.5 μM each), 0.1 μl; AMPLITAQ GOLD™ (5 U/μl), 0.125 μl for a total volume of 5.0 μl per reaction.
Primer -SNPU or SNPL was then used for single-base extension reaction. The thermocycler program was as follows: Step 1: 96° C. for 3 min; Step 2: 94° C. for 20 sec; Step 3: 40° C. for 11 sec; and Step 5: return to step 2 59 times, and finally to hold at 4° C.
as §1
Covariates in the analysis included recoded binary demographic variables (sex, race, site, grade, stage) and recoded binary genetic variables.
Multivariable regression analysis was used to find the best model in predicting the Toxicity Index in each of the first five cycles.

SMILES | Toxicity Index TI1 Mean [1] | Toxicity Index TI2 Mean [1] | Toxicity Index TI3 Mean [1] | Toxicity Index TI4 Mean [1] | Toxicity Index TI5 Mean [1] | Toxicity Index TI6 Mean [1] | Toxicity Index TI7 Mean [1] | Toxicity Index TI8 Mean [1] | Toxicity Index TI9 Mean [1] | Toxicity Index TI10 Mean [1] | Toxicity Index TI11 Mean [1] | Toxicity Index TI12 Mean [1] | Toxicity Index TI13 Mean [1] | Toxicity Index TI14 Mean [1] | Toxicity Index TI15 Mean [1] | Toxicity Index TI16 Mean [1] | Toxicity Index TI17 Mean [1] | Toxicity Index TI18 Mean [1] | Toxicity Index TI19 Mean [1] | Toxicity Index TI20 Mean [1] | other results
CC(=O)O[C@@]12CO[C@@H]1C[C@H](O)[C@@]1(C)C(=O)[C@H](O)C3=C(C)[C@@H](OC(=O)[C@H](O)[C@@H](NC(=O)OC(C)(C)C)c4ccccc4)C[C@@](O)([C@@H](OC(=O)c4ccccc4)[C@H]21)C3(C)C (relative stereo) [Docetaxel, Benzenepropanoic acid, β-(((1,1-dimethylethoxy)carbonyl)amino)-α-hydroxy-, 12b-(acetyloxy)-12-(benzoyloxy)-2a,3,4,4a,5,6,9,10,11,12,12a,12b-dodecahydro-4,6,11-trihydroxy-4a,8,13,13-tetramethyl-5-oxo-7,11-methano-1H-cyclodeca(3,4)benz(1,2-b)oxet-9-yl ester trihydrate, (2aR-(2aα,4β,4aβ,6β,9(αR*,βS),11α,12α,12aα,12bα))-] | 2.727 | 2.840 | 2.737 | 3.058 | 2.669 | 2.875 | 2.646 | 2.804 | 2.438 | 2.623 | 2.297 | 2.090 | 2.404 | 2.171 | 2.083 | 1.875 | 1.875 | 1.875 | 2.625 | 1.875 | Toxicity Index TI21 Mean [1]: 1.875; Para. Est., TI5 vs CYP3A5_3A (multivariable) (CYP3A5; rs776746, AG = 1, GG/AA = 0, P-value 0.024): −1.739; Para. Est., TI4 vs CYP3A5_3A1 (CYP3A5; univariate linear regression, cycle 4, rs15524, TC = 1, CC/TT = 0, P-value 0.045): −1.079; Para. Est., TI4 vs CYP3A5_3A (CYP3A5; univariate linear regression, cycle 4, rs776746, AG = 1, GG/AA = 0, P-value 0.045): −1.079; Para. Est., TI5 vs CYP3A5_3A1 (CYP3A5; univariate linear regression, rs15524, TC = 1, CC/TT = 0, P-value 0.024): −1.739; Para. Est., TI5 vs CYP3A5_3A (CYP3A5; univariate linear regression, rs776746, AG = 1, GG/AA = 0, P-value 0.024): −1.739
CC(=O)O[C@H]1C(=O)[C@@]2(C)[C@H]([C@H](OC(=O)c3ccccc3)[C@]3(O)C[C@H](OC(=O)[C@H](O)[C@@H](NC(=O)c4ccccc4)c4ccccc4)C(C)=C1C3(C)C)[C@]1(OC(C)=O)CO[C@@H]1C[C@@H]2O [Paclitaxel, (2aR,4S,4aS,6R,9S,11S,12S,12aR,12bS)-1,2a,3,4,4a,6,9,10,11,12,12a,12b-Dodecahydro-4,6,9,11,12,12b-hexahydroxy-4a,8,13,13-tetramethyl-7,11-methano-5H-cyclodeca(3,4)benz(1,2-b)oxet-5-one 6,12b-diacetate, 12-benzoate, 9-ester with (2R,3S)-N-benzoyl-3-phenylisoserine] | 2.175 | 2.399 | 2.491 | 2.787 | 2.696 | 2.580 | 2.529 | 2.206 | 2.292 | 1.875 | 2.583 | 1.750 | 1.875 | 1.875 | 1.875 | 2.583 | 2.583 | 2.583 | 2.583 | 2.944 | Toxicity Index TI21 Mean [1]: 3.469; Para. Est., TI5 vs CYP3A5_3A (multivariable) (CYP3A5; rs776746, GG = 1, AG = 0, P-value 0.022): 1.477; Para. Est., TI5 vs CYP3A5_3A1 (CYP3A5; univariate linear regression, rs15524, TT = 1, TC = 0, P-value 0.022): 1.477; Para. Est., TI5 vs CYP3A5_3A (CYP3A5; univariate linear regression, rs776746, GG = 1, AG = 0, P-value 0.022): 1.477

Reference: patent US20090186361A1, “METHODS OF PREDICTING THE PHARMACEUTICAL TOXICITY OF TAXANES” (priority 2008, published 2009)
